Experimental findings from US11591342B2, “Heterocyclic compound, application thereof and pharmaceutical composition comprising same” (SUZHOU SINOVENT PHARMACEUTICALS CO., LTD., priority 2018, dated 2023) are described below.

Data set [1] concerns the target CYP3A4 (Homo sapiens (Human), UniProt P08684). Nature of the data set: Time-dependent inhibition of CYP3A4 (TDI assay, human liver microsomes). The class given is in vitro ADME. The settings on record: for CYP3A4 TDI % @ 10 μM: human liver microsomes, Midazolam substrate, 30 min with NADPH vs 0 min; for time-dependent inhibition on CYP3A4 (conclusion): conclusion drawn from Table 3, 10 μM. How it is done: Effect Example 3. Time-Dependent Inhibition of CYP3A4
1. Preheating potassium phosphate buffer (K-buffer), pH 7.4: 100 mM potassium phosphate buffer (K-buffer) was prepared by mixing 9.5 mL of solution A with 40.5 mL of solution B, diluting to 500 mL with ultrapure water, and then adjusting to pH 7.4 with KOH or H3PO4, wherein the solution A (1M potassium dihydrogenphosphate) was prepared by dissolving 136.5 g of potassium dihydrogenphosphate in […] of ultrapure water.
2. Preparation of human liver microsome suspension (1.3 mg/mL, 1.3×, stock: 20 mg/mL): 100 μL of human liver microsome suspension (20 mg/mL) was added into […] of K-buffer.
3. Preparation of NADPH solution (4.167 mg/mL, 5 mM): 8.3 mg of NADPH was added into 2 mL of buffer.
4. Preparation of substrate solution (1.5× final): 1.5 μL of 10 mM Midazolam was added to 998.5 μL of K-buffer to yield the substrate mixture.
5. Preparation of 100× test compound, reference and blank control solutions: 3 μL of 10 mM stock solution of test compound was added to 27 μL of ACN; 3 μL of positive control stock solution was added to 27 μL of ACN; and 3 μL of DMSO was added to 27 μL of ACN to serve as blank control.
6. Primary preheating system: An NADPH-free system for 0 min incubation: 78 μL of 1.3× human liver microsome solution (step 2) was mixed with 1 μL of the 100× stock solutions of positive control, test compound, or blank control (step 5); A system containing NADPH for 30 min incubation: 78 μL of 1.3× human liver microsome solution (step 2) was mixed with 1 μL of the 100× stock solutions of positive control, test compound, or blank control (step 5).
7. Secondary preheating system: 150 μL of the substrate solution prepared in step 4 was added into a deep well plate together with the NADPH solution from step 3
8. The samples were preheated for 10 min in a 37° C. water bath.
9. Reaction procedure: (1) reaction for 0 min: 21 μL of K-buffer was added to the primary preheating system and mixed well without incubation; 20 μL of the mixture was immediately transferred into the plate of the secondary preheating system; after mixing, the secondary system was incubated in a 37° C. water bath for 15 min, and 60 μL of the reaction mixture was added into 120 μL of acetonitrile containing internal standard to terminate the reaction; and (2) reaction for 30 min: 21 μL of NADPH was added into the primary preheating system for a 30-min incubation after mixing; 20 μL of the mixture was added into the secondary preheating system prior to mixing; the mixture was incubated in a 37° C. water bath for 15 min, and 60 μL of the reaction mixture was added into 120 μL of acetonitrile containing internal standard to terminate the reaction.
10. After termination, the samples were shaken on a shaker at 600 rpm for 10 min and centrifuged at 5594 g for 15 min prior to LC-MS/MS analysis.
For orientation: Liver microsomes are a subcellular fraction often used to study metabolism.

In data set [2] the target is Autotaxin (ATX) (Homo sapiens (Human), UniProt Q13822). Description: ATX bioactivity assay (Amplex Red / choline oxidase / HRP fluorescence, LPC 16:0 substrate). Format: biochemical. The settings on record: 30 min room temperature.
The test system of data set [3] is LPA18:2 in mouse plasma. Description: Inhibition of LPA in mouse plasma (plasma LPA18:2 assay, LC-MS/MS). Format: biochemical, CD1 mice. The settings on record: fresh CD1 mouse plasma, LPA18:2, 37° C. for 120 min. The method, then: Effect Example 2. Inhibition of LPA in Mouse Plasma by Compounds
20 mM stock solutions of the compounds were prepared with DMSO and then diluted to 1 mM, which was subjected to a serial 3-fold dilution to yield 10 working solutions.
Collection of Fresh Mouse Plasma:
CD1 mice were euthanized by CO2 inhalation. Approximately 1 mL of whole blood was taken by cardiac puncture, with EDTA-K2 for anticoagulation. The blood was centrifuged at 3220 g for 10 min at 4° C. for plasma collection.
Reactions were performed in a 96-well plate, and the samples were tested in duplicate. 1 μL of each working solution was added to 100 μL of plasma, with the final concentrations of […]. 1 μL of DMSO was added to plasma to serve as blank. The samples were incubated in a water bath at 37° C. for 120 min, and 600 μL of 10 μM tolbutamide in methanol was added to terminate the reaction. Tolbutamide also served as an internal standard. After 5 min of vortex mixing, the samples were centrifuged at 3220 g for 45 min at 4° C. to precipitate the protein. 100 μL of the supernatant was transferred to a new plate, diluted with water based on LC-MS response and peak shapes, mixed well and analyzed by LC-MS/MS.
LPA18:2 was quantified using peak area ratio (LPA18:2/internal standard), requiring no standard curve. For test compounds of different concentrations, LPA data was represented by a percentage decrease of LPA: 100-[((LPA peak area ratio of compound)/(LPA peak area ratio of control))×100]. IC50 was calculated using Graphpad Prism 6.0 software.

For orientation: IC50 means the concentration at which inhibition is half-maximal. Read a low IC50 as greater potency.

Chain of CYP3A4 (P08684 whole entry): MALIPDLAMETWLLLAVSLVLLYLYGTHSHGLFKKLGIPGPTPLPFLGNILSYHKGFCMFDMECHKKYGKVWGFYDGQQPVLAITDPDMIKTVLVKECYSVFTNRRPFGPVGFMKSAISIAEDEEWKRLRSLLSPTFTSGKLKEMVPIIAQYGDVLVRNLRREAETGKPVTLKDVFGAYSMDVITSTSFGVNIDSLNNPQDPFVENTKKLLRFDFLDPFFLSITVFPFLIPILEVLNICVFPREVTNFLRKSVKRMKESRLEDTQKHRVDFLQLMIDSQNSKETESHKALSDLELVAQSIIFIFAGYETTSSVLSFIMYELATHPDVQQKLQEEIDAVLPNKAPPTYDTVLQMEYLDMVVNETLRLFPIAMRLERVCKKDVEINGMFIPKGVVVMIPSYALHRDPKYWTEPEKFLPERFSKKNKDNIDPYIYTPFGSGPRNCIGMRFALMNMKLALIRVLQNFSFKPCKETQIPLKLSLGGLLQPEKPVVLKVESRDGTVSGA

On to `CCc1oc2ccc(N3CCN(CC(=O)N4CC(O)C4)CC3)nc2c1N(C)c1nc(-c2ccc(F)cc2)c(C#N)s1` [Compound S-0097, 2-((2-ethyl-5-(4-(2-(3-hydroxyazetidin-1-yl)-2-oxoethyl)piperazin-1-yl)furo[3,2-b]pyridin-3-yl)(methyl)amino)-4-(4-fluorophenyl)thiazole-5-carbonitrile], for which, in data set [1], the “CYP3A4 TDI % @ 10 μM” value is listed as 12.51% and the “time-dependent inhibition on CYP3A4 (conclusion)” value (shortened to “time-dependent inhibition”) is reported as “no time-dependent inhibition on CYP3A4”. In data set [2], this compound showed an IC50 of 0.16 µM. The half-inhibitory concentration (IC50) in data set [3] amounted to 0.16 µM.

As to `CCn1nc2ccc(N3CCN(CC(=O)N4CC(O)C4)CC3)nc2c1N(C)c1nc(-c2ccc(F)cc2)c(C#N)s1` [Compound S-0094, 2-((2-ethyl-5-(4-(2-(3-hydroxyazetidin-1-yl)-2-oxoethyl)piperazin-1-yl)-2H-pyrazolo[4,3-b]pyridin-3-yl)(methyl)amino)-4-(4-fluorophenyl) thiazole-5-carbonitrile], in data set [1], the “CYP3A4 TDI % @ 10 μM” value is 20.88% and the “time-dependent inhibition” value is on record as “no time-dependent inhibition on CYP3A4”. Moreover, the 50% inhibitory concentration (IC50) in data set [2] worked out at 0.023 µM. This compound gave a concentration for half-maximal inhibition (IC50) in data set [3] of 0.013 µM.

As for `CCc1sc2ccc(N3CCN(CC(=O)N4CC(O)C4)CC3)nc2c1N(C)c1nc(-c2ccc(F)cc2)c(C#N)s1` [Compound S-0129, 2-((2-ethyl-5-(4-(2-(3-hydroxyazetidin-1-yl)-2-oxoethyl)piperazin-1-yl)thieno[3,2-b]pyridin-3-yl)(methyl)amino)-4-(4-fluorophenyl)thiazole-5-carbonitrile], the “CYP3A4 TDI % @ 10 μM” value in data set [1] is 14.42%. In addition, in data set [1], the “time-dependent inhibition” value is listed as “no time-dependent inhibition on CYP3A4”. The values for the IC50 in data set [2] and in data set [3] were 0.264 µM and 0.268 µM, respectively.

As to `CCc1[nH]c2ccc(N3CCN(CC(=O)N4CC(O)C4)CC3)nc2c1N(C)c1nc(-c2ccc(F)cc2)c(C#N)s1` [Compound S-0098, 2-((2-ethyl-5-(4-(2-(3-hydroxyazetidin-1-yl)-2-oxoethyl)piperazin-1-yl)-1H-pyrrolo[3,2-b]pyridin-3-yl)(methyl)amino)-4-(4-fluorophenyl) thiazole-5-carbonitrile], in data set [1], the “CYP3A4 TDI % @ 10 μM” value is 37.19% and the “time-dependent inhibition” value is “weak time-dependent inhibition on CYP3A4”. Moreover, in data set [2], 0.031 µM corresponded to half-maximal inhibition (IC50). This compound also returned a half-inhibitory concentration (IC50) in data set [3] of 0.002 µM.

On to `CCN(c1nc(-c2ccc(F)cc2)c(C#N)s1)c1c2cc(N3CCN(CC(=O)N4CC(O)C4)CC3)cc(F)c2nn1CC` [Compound S-0122, 2-(ethyl(2-ethyl-7-fluoro-5-(4-(2-(3-hydroxyazetidin-1-yl)-2-oxoethyl)piperazin-1-yl)-2H-indazol-3-yl)amino)-4-(4-fluorophenyl)thiazole-5-carbonitrile], for which, in data set [1], the “CYP3A4 TDI % @ 10 μM” value is listed as 38.25% and the “time-dependent inhibition” value is “weak time-dependent inhibition on CYP3A4”. The half-maximal inhibitory concentration (IC50) in data set [2] was found to be 0.025 µM. In addition, the IC50 in data set [3] was 0.061 µM.

For the compound `CCn1nc2c(F)cc(N3CCN(CC(=O)N4CC(O)C4)CC3)cc2c1N(C)c1nc(-c2ccc(F)cc2)c(C#N)s1` [Compound S-0025, 2-((2-ethyl-7-fluoro-5-(4-(2-(3-hydroxyazetidin-1-yl)-2-oxoethyl)piperazin-1-yl)-2H-indazol-3-yl)(methyl)amino)-4-(4-fluorophenyl)thiazole-5-carbonitrile], in data set [1], the “CYP3A4 TDI % @ 10 μM” value is recorded as 34.21% and the “time-dependent inhibition” value is reported as “weak time-dependent inhibition on CYP3A4”. Moreover, half-maximal inhibition in data set [2] (IC50) was put at 0.088 µM. The compound further came in with a half-inhibitory concentration (IC50) in data set [3] of 0.131 µM.

`CCn1nc2c(C)cc(N3CCN(CC(=O)N4CC(O)C4)CC3)nc2c1N(C)c1nc(-c2ccc(F)cc2)c(C#N)s1` [Compound S-0095, 2-((2-ethyl-5-(4-(2-(3-hydroxyazetidin-1-yl)-2-oxoethyl)piperazine-1-yl)-7-methyl-2H-pyrazolo[4,3-b]pyridin-3-yl)(methyl)amino)-4-(4-fluorophenyl)thiazole-5-carbonitrile]: in data set [1], the “CYP3A4 TDI % @ 10 μM” value came to 2.91% and the “time-dependent inhibition” value is recorded as “no time-dependent inhibition on CYP3A4”. Moreover, the IC50 in data set [2] was determined as 0.119 µM. In data set [3], the half-inhibitory concentration (IC50) is 0.309 µM.

Consider `CCn1nc2c(F)cc(N3CCN(CC(=O)N4CC(O)C4)CC3C(F)(F)F)cc2c1N(C)c1nc(-c2ccc(F)cc2)c(C#N)s1` (single isomer, unassigned) [Compound S-0131B, 2-((2-ethyl-7-fluoro-5-(4-(2-(3-hydroxyazetidin-1-yl)-2-oxoethyl)-2-(trifluoromethyl)piperazin-1-yl)-2H-indazol-3-yl) (methyl)amino)-4-(4-fluorophenyl)thiazole-5-carbonitrile], for which the IC50 in data set [2] turned out to be 0.036 µM; in data set [3], 0.091 µM.

As to `CCn1nc2c(F)cc(N3CCN(CC(=O)N4CC(O)C4)CC3C(F)(F)F)cc2c1N(C)c1nc(-c2ccc(F)cc2)c(C#N)s1` (single isomer, unassigned) [Compound S-0131A, 2-((2-ethyl-7-fluoro-5-(4-(2-(3-hydroxyazetidin-1-yl)-2-oxoethyl)-2-(trifluoromethyl)piperazin-1-yl)-2H-indazol-3-yl)(methyl)amino)-4-(4-fluorophenyl)thiazole-5-carbonitrile], the figures for the IC50 in data set [2] and in data set [3] were 0.047 µM and 0.236 µM, respectively.

For the compound `CCN(c1nc(-c2ccc(F)cc2)c(C#N)s1)c1c2cc(N3CCN(CC(=O)N4CC(O)C4)CC3C(F)(F)F)cc(F)c2nn1CC` (single isomer, unassigned) [Compound S-0134A, 2-(ethyl(2-ethyl-7-fluoro-5-(4-(2-(3-hydroxyazetidin-1-yl)-2-oxoethyl)-2-(trifluoromethyl)piperazin-1-yl)-2H-indazol-3-yl)amino)-4-(4-fluorophenyl)thiazole-5-carbonitrile], the IC50 was 0.02 µM in data set [2] and 0.116 µM in data set [3].

For the compound `CCn1nc2c(C)cc(N3CCN(CC(=O)N4CC(O)C4)CC3)nc2c1N(CCF)c1nc(-c2ccc(F)cc2)c(C#N)s1` [Compound S-0144, 2-((2-ethyl-5-(4-(2-(3-hydroxyazetidin-1-yl)-2-oxoethyl)piperazin-1-yl)-7-methyl-2H-pyrazolo[4,3-b]pyridin-3-yl)(2-fluoroethyl)amino)-4-(4-fluorophenyl)thiazole-5-carbonitrile], the figures for the half-maximal inhibitory concentration (IC50) in data set [2] and in data set [3] were 0.027 µM and 0.067 µM, respectively.

`CCN(c1nc(-c2ccc(F)cc2)c(C#N)s1)c1c2cc(N3CCN(CC(=O)N4CC(O)C4)[C@H](C(F)(F)F)C3)cc(F)c2nn1CC` [Compound S-0135A, (S)-2-(ethyl(2-ethyl-7-fluoro-5-(4-(2-(3-hydroxyazetidin-1-yl)-2-oxoethyl)-3-(trifluoromethyl)piperazin-1-yl)-2H-indazol-3-yl)amino)-4-(4-fluorophenyl)thiazole-5-carbonitrile]: the IC50 in data set [2] stood at 0.132 µM; in data set [3] it was 0.442 µM.
